Laboratory results from patent publication US20250288558A1, “THERAPEUTIC FOR SPINAL CORD INJURY TO INDUCE HYPOTHERMIA” (The Trustees of Indiana University, priority 2024, published 2025).
Values joined by “and” are separate entries in the source; they are usually repeats but may differ in a detail not shown here. Equal values may be shown once. Where a name gives a salt, the structure may show the parent alone. Read-outs that look alike come from different tables or passages of the source.

Key:
[1] = test system: none-injury young adult c57 BL/6 mice
Procedure: The effects of different doses of Dex on hypothermia induction in none-injury young adult c57 BL/6 mice was tested. […] Further, we examined the change of Dex induced hypothermia when the routine Avertin (2.5%), a wildly used anesthetic for small animal surgery was applied.

[2] = test system: mice with moderate T9 contusive SCI; details: weeks 3-6 post-injury, n=10, p<0.05
Text: Thus, Rotarod was further performed to assess motor coordination, balance, and motor learning specifically post-injury.
(§1) Rotarod test: Rotorod is used to assay the hindlimb function of the animal. The animal was put on a rotated device. It consisted of a metal frame with a motorized, rotating assembly of rods. Animals were allowed to remain stationary. […] If animal skilled, it can remain on the device at this speed for extra 30 sec until the 2-min test period elapsed. Normally, a trial was ended if the animal fell completely off the rod or gripped the rod and spun around without attempting to walk on the rod. Mean duration on the rod was recorded.

[3] = test system: mice with moderate T9 contusive SCI; details: n=10; for foot fall rate: Dex+SCI
Text: In addition to Rotarod test, Grid walk test further was ran twice at […] post-injury to assess hindlimb movements involved in sensorimotor functions, such as precise stepping, coordination and accurate placement of the paw. A one-foot drop error was counted when the hindlimb paw was entirely dropping through the grid with all toes and heel below the grid surface.
(§2) Grid-walking: The grid-walking test assesses the ability of a mouse to place its paws on the rungs of a grid accurately during spontaneous exploration. An elevated metal rectangle grid (12×36 inch2 with each grid cell 0.5×0.5 inch2) and 16 inches above a table top was used for the hindlimb drop error test. Each mouse was placed in the center of the grid for 3 min. A one-foot drop error was counted when the hindlimb paw was entirely dropping through the grid with all toes and heel below the grid surface. The total number of foot drop errors and total number of steps were recorded by video. Two observers who were blinded to the experiment analyzed the video and counted the steps. The grid-walking test was performed on the day before surgery and on days 21 and 35 post-SCI. Only those mice with consistent plantar stepping (BMS≥5) were tested on the grid.

[4] = test system: mouse with a SCI
Procedure: Referring to FIGS. 5A-5C, to evaluate the coordination of bladder and external urethral sphincter, urodynamic recordings were performed. Bladder cystometrograph (CMG) and external urethral sphincter electromyography (EMG) were co-recorded. The peak intravesical pressure in CMG indicates the contraction of bladder detrusor. The bursting signal in external urethral sphincter EMG is a sign of relaxation of external urethral sphincter. The coordination of bladder and external urethral sphincter was reflected by the synchronization of two signals. […] In chronically injured mice, restoration of reflex external urethral sphincter relaxation correlates with the re-appearance of external urethral sphincter bursting. Therefore, external urethral sphincter bursting is a good indicator of external urethral sphincter functional recovery after SCI in mice.

[5] = test system: spinal cord coronal sections of SCI mice; details: female, n=3
Procedure: We first measured the lesion size and spared white matter using cresyl violet and cosin staining.
Tissue Processing: All the animals were deeply anesthetized with Avertin and then perfused transcardially with cold saline, followed by a fixative containing 4% paraformaldehyde (PFA) in PBS. The spinal cord was removed, post-fixed overnight in PFA, and cryoprotected for 48 hours in 30% sucrose. Serial 30 μm thick coronal sections were cut using a cryostat (Leica CM 1950), mounted on slides and stored at −20° C. The sections were then processed for histopathological analysis.
Cresyl violet and cosin staining: A set of slides were first removed from the freezer and allowed to air dry for a minimum of 60 minutes at room temperature. Subsequently, the sections were treated with two 5-minute rinses in 10 mM PBS, followed by a 1-minute rinse in ddH2O. Next, slides were immersed for 20 minutes in Nissl stain, followed by two 5-minute rinses in ddH2O. Subsequently, slides were sequentially immersed in 90% ethanol (3 minutes), 95% ethanol (3 minutes), two changes of 100% ethanol (3 minutes each), and finally, three changes of 100% xylene (3 minutes each). Lastly, slides were mounted using Permount.

[6] = test system: SMI31-positive axons in white matter; details: FIG. 8B
Procedure: We further counted the number of NeuN-positive neurons in each section. […] Therefore, SMI31, an axon maker immunostaining was performed to evaluate the axons in spared white matter.
(§3) Immunofluorescent Staining: Immunofluorescent staining was carried out according to our previous reports. In brief, sections on the slides were rinsed in PBS 3 times (5 minutes each) and incubated in blocking buffer (0.1% Triton X-100, 1% bovine serum albumin, and 5% normal serum in PBS) for 1 hour at room temperature. Then, primary antibodies were added to blocking buffer and incubated with sections overnight at 4° C. After 3 washes with PBS (5 minutes each), sections were incubated with the secondary antibody for 1 hour at room temperature and then treated with 4′,6-Diamidino-2-phenylindole (DAPI) for 2 minutes. Finally, sections were washed 3 times with PBS (5 minutes each), dried, and mounted using Fluoromount G (Southern Biotech, Birmingham, AL, USA). Primary antibodies and their final concentrations were as follows: NeuN antibody (1:500, chicken, Abcam, ab134014), SMI31 antibody (1:1000, mouse, Millipore, NE1022), and GFAP antibody (1:1000, mouse, Sigma, G3893).

[7] = test system: GFAP; details: epicenter
Procedure: as §3

[8] = test system: mice with contusive T9 moderate SCI (IH); details: end of BMS test, IH model
Text: The scores ranged from 9 to 0 that represent normal movement to complete paralysis, respectively.

[9] = test system: mice with contusive T9 moderate SCI (IH); details: IH model
Text: as §1

[10] = test system: mice with contusive T9 moderate SCI (IH); details: 6 wk, SCI+Dex, n=10
Procedure: as §2

[11] = test system: mouse with a SCI; details: 4 hours after 1 ml saline IP injection, n=5

SMILES: Cc1cccc([C@H](C)c2cnc[nH]2)c1C [Dex, dexmedetomidine hydrochloride]
- hypothermia induction ([1]; Dex 1 μg/kg IP, none-injury mice): failed to induce hypothermia
- hypothermia induction ([1]; Dex 10 μg/kg IP, none-injury mice): failed to induce hypothermia
- duration of hypothermia ([1]; Dex 50 μg/kg IP, ambient temperature 24.5° C.): less than one hour
- hypothermia body temperature ([1]; Dex 50 μg/kg IP, ambient temperature 24.5° C., mild hypothermia): 34-35 °C
- duration of hypothermia ([1]; Dex 50 μg/kg one hour post Avertin (2.5%), none-injury mice): 2 h
- duration of hypothermia ([1]; Dex 100 μg/kg IP alone, ambient temperature 24.5° C., hydrochloride): 2 h and 3 h
- hypothermia body temperature ([1]; Dex 100 μg/kg IP, mild to moderate hypothermia): 30-32 °C
- duration of hypothermia ([1]; Dex 100 μg/kg one hour post Avertin (2.5%), none-injury mice): 6 h
- death of treated mice ([1]; Dex 200 μg/kg IP, due to urethral obstructions): about 40%
- hypothermia body temperature ([1]; Dex 200 μg/kg IP, more severe hypothermia): lower than 28 °C
- induced hypothermia body temperature ([1]; in one hour at ambient temperatures 24-25° C., modest hypothermia): 30-32 °C
- increased rate of Rotarod retention time vs. SCI only [2]: around 75%
- foot fall rate ([3]; 4 weeks post-injury): 17.3±5.1%
- foot fall rate ([3]; 6 weeks post-injury): 12.9±3.6%
- recovery of sensorimotor functions (Grid Walk) ([3]; FIG. 3D, female): better recovery of sensorimotor functions
- voiding efficiency ([4]; n=5, p<0.05 vs. SCI group): 15.9±6.6%
- bladder capacity ([4]; p<0.05 vs. SCI group): 0.56 ± 0.31 mL
- synchronization of bladder CMG and external urethral sphincter EMG signals ([4]; vs. SCI): enhanced the synchronization
- total area of spinal cord section, SCI+Dex vs. SCI [5]: no significant difference
- SMI31 signal (intensity and area) vs. SCI [6]: significantly preserved more
- intensity of GFAP-positive signal compared to none-treatment SCI mice [7]: decreased significantly
- BMS increase rate vs. SCI [8]: 56%
- BMS score ([8]; SCI+Dex, n=10): 7.13±0.48
- Rotarod duration time ([9]; 6 wk, SCI+Dex, n=10): 35.3±1.84
- Rotarod average increase rate vs. none-treatment SCI mice [9]: 55%
- Grid walk foot fall [10]: 12.9±3.6
- frequency of urination [11]: 6±0.82
- urine volume [11]: 0.3 ± 0.04 mL
